# Reference: patent US20260306526A1, “COMBINATION THERAPY FOR BACTERIAL INFECTIONS COMPRISING ZINC-CHELATOR, BETA-LACTAM ANTIBIOTIC AND SERINE BETA-LACTAMASE INHIBITOR” (priority 2023, published 2026)
# Values joined by “and” are separate entries in the source; they are usually repeats but may differ in a detail not shown here. Equal entries are not always repeated.
# What was measured:
# [1] = system: Klebsiella pneumoniae ST147; assay: MIC determination, fixed ratio of sBLI to antibiotic (Examples 5-7); type: cell-based; conditions: Example 7; with MEM and AVI (fixed ratio); NDM-1 and KPC-2; caMHB, 29.4 μM Zn2+
# Description: Antimicrobial susceptibility testing (AST) by broth microdilution (MIC determination) was performed according to The European Committee on Antimicrobial Susceptibility Testing (EUCAST) guidelines (see Reading guide for broth microdilution Version 5.0, 2024: https://www.eucast.org).
# Sterile clear round bottom polystyrene (non-treated) 96-well microplates (Corning 3788) were used for making serial two-fold dilutions of the antibiotic and the sBLI in cation-adjusted Mueller Hinton II broth (caMHB; Thermo Scientific, T3462, containing 29.4 μM Zn^2+), across the columns of the microtiter plate (256-0.06 μg/mL; columns 1-12). The checkerboard plates were all made by keeping the sBLI at a fixed ratio relative to antibiotic (absolute concentrations of each, in μg/mL) to all wells containing sample in each plate. Additionally, a set of samples was included in each test plate, where the zinc chelator was added, at various fixed concentrations, of 16 μg/mL, 8 μg/mL and/or 4 μg/mL (as specified in each Example). All sample wells contained growth medium (caMHB), and inoculated bacteria at a final inoculum between 3-7×10^5 CFU/mL. […]
# [2] = system: many strains of Acinetobacter baumannii; conditions: with MEM; cited from earlier work
compound,measurement,setting,value
CN(C[C@H](O)[C@@H](O)[C@H](O)[C@H](O)CO)C(=O)c1ccc(CN(Cc2ccccn2)Cc2ccccn2)nc1 [zinc chelator],Synergy with the zinc chelator observed at concentration,[1],16 µg/mL and 8 µg/mL
same,effect of combination,[2],poor effect
